Laboratory results: BindingDB's records for doi:10.1021/jm050280z (Uppsala University, 2005)
Starred links: 1 amine or outer side, 2 acyl side, 3 side chain; linkers in the order of their positions; H or OH if unused. Non-standard residues stand in square brackets, D forms with d. Residues, ends and D or L forms follow the SMILES beside them. X2 = O=C(c1cc(CN[*:1])cc(Cc2ccc(O)cc2)c1)[*:2]; X1 = O=C(c1cc(Cc2ccc(O)cc2)cc(N[*:1])c1)[*:2]

Biological target: Type-2 angiotensin II receptor (Sus scrofa)
Assay: Binding affinity for angiotensin II receptor, type 2 in pig uterus myometrium using [125I]-Ang II as radioligand, in pH 7.4 Tris-HCl buffer for 1.5 hr at 25 degree C

Row | SMILES | Ki [nM]
1 | N=C(N)NCCC[C@H](NC(=O)[C@@H](N)CC(=O)O)C(=O)NCc1cc(Cc2ccc(O)cc2)cc(C(=O)N[C@@H](Cc2cnc[nH]2)C(=O)N2CCC[C@H]2C(=O)N[C@@H](Cc2ccccc2)C(=O)O)c1 [(S)-3-Amino-N-{(S)-1-[3-[(S)-2-[2-((S)-(S)-1-carboxy-2-phenyl-ethylcarbamoyl)-pyrrolidin-1-yl]-1-(3H-imidazol-4-ylmethyl)-2-oxo-ethylcarbamoyl]-5-(4-hydroxy-benzyl)-benzylcarbamoyl]-4-guanidino-butyl}-succinamic acid] (H-DR[X2]HPF-OH) | 10.1
2 | N=C(N)NCCC[C@H](NC(=O)[C@@H](N)CC(=O)O)C(=O)Nc1cc(Cc2ccc(O)cc2)cc(C(=O)N[C@@H](Cc2cnc[nH]2)C(=O)N2CCC[C@H]2C(=O)N[C@@H](Cc2ccccc2)C(=O)O)c1 [(S)-3-Amino-N-{(S)-1-[3-[(S)-2-[2-((S)-(S)-1-carboxy-2-phenyl-ethylcarbamoyl)-pyrrolidin-1-yl]-1-(3H-imidazol-4-ylmethyl)-2-oxo-ethylcarbamoyl]-5-(4-hydroxy-benzyl)-phenylcarbamoyl]-4-guanidino-butyl}-succinamic acid] (H-DR[X1]HPF-OH) | 41.3
3 | CC(C)[C@H](NC(=O)[C@H](CCCNC(=N)N)NC(=O)[C@@H](N)CC(=O)O)C(=O)NCc1cc(Cc2ccc(O)cc2)cc(C(=O)N[C@@H](Cc2cnc[nH]2)C(=O)N2CCC[C@H]2C(=O)N[C@@H](Cc2ccccc2)C(=O)O)c1 [(S)-3-Amino-N-((S)-1-{1-[(S)-3-[2-[2-((S)-(S)-1-carboxy-2-phenyl-ethylcarbamoyl)-pyrrolidin-1-yl]-1-(3H-imidazol-4-ylmethyl)-2-oxo-ethylcarbamoyl]-5-(4-hydroxy-benzyl)-benzylcarbamoyl]-2-methyl-propylcarbamoyl}-4-guanidino-butyl)-succinamic acid] (H-DRV[X2]HPF-OH) | 1.85
4 | CC(C)[C@H](NC(=O)[C@H](CCCNC(=N)N)NC(=O)[C@@H](N)CC(=O)O)C(=O)Nc1cc(Cc2ccc(O)cc2)cc(C(=O)N[C@@H](Cc2cnc[nH]2)C(=O)N2CCC[C@H]2C(=O)N[C@@H](Cc2ccccc2)C(=O)O)c1 [(S)-3-Amino-N-((S)-1-{(S)-1-[(S)-3-[2-[2-((S)-(S)-1-carboxy-2-phenyl-ethylcarbamoyl)-pyrrolidin-1-yl]-1-(3H-imidazol-4-ylmethyl)-2-oxo-ethylcarbamoyl]-5-(4-hydroxy-benzyl)-phenylcarbamoyl]-2-methyl-propylcarbamoyl}-4-guanidino-butyl)-succinamic acid] (H-DRV[X1]HPF-OH) | 9.8
